Source: article PMC7470124, “Efficient synthesis, biological evaluation, and docking study of isatin based derivatives as caspase inhibitors” (Journal of Enzyme Inhibition and Medicinal Chemistry, 2020)
“Also recorded” adds a separate entry of the source.

How the values were obtained:
[1] = test system: caspase-3 and −7; assay: Caspase-3 and -7 inhibition, acetyl-DEVD-AMC fluorogenic substrate assay (text does not say which caspase); format: biochemical; conditions: for inhibition percentage: at 20 μg/ml, caspase not given; for Selectivity Index (SI): IC50 caspase-7/IC50 caspase-3, greater than 1.5 = selective inhibitor of caspase-3; for inhibitory activity against caspase-3 and −7 (in words): compared to Ac-DEVD-CHO
Description: (§1) The inhibitory activities of newly synthesised 2–(2,3-dioxoindolin-1-yl)-N-substituted phenyl acetamide, 1-(prop-2-yn-1-yl)indoline-2,3-dione and two series of compounds containing 1-(pyrrolidinyl)sulphonyl and 2-(phenoxymethyl)pyrrolidin-1-yl)sulphonyl substitution at C^5 position of isatin core (B, C, Table 1) against caspase-3 and −7 were evaluated by using the acetyl-DEVD-AMC fluorogenic substrate assay. The results are expressed as inhibition percentage and IC50 values in Table 1. We used Ac-DEVD-CHO as the positive control.
(§2) The activity assay of caspase-3 was performed in a system of 50 µL containing 150 mM NaCl, 1 mM EDTA, 2 mM DTT, 50 mM HEPES pH 7.4, 10 µM Ac-DEVD-AMC (Bachem Bioscience, Philadelphia, PA, USA) and 2 nM caspase-3 in the 1 µL DMSO. Caspase-3 was incubated with synthesised compounds in 384-well plates for 10 min. […] The enzymatic activity of the caspase-3 was measured based on production of a fluorogenic substrate, 7-amino-4-methyl coumarin, which was monitored for 10 min and detected using an EnVision (PerkinElmer, Wellesley, MA, USA) at λex = 360 nm and λem= 460 nm. The initial rate of hydrolysis was determined using the early linear region of the enzymatic reaction curve.

[2] = biological target: T1, caspase-3 (Homo sapiens, UniProt P42574); assay: Caspase-3 inhibition assay (Ac-DEVD-AMC fluorogenic substrate); format: biochemical
T1 sequence (P42574 29-175 limits assumed): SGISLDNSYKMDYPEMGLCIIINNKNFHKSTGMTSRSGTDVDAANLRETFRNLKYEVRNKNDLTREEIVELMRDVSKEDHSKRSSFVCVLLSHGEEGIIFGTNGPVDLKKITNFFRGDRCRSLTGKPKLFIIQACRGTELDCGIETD
T1 sequence (P42574 176-277 limits assumed): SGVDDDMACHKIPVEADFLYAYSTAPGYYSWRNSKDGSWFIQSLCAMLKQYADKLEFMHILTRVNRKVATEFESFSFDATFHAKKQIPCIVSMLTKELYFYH
Description: as §1, §2

Row | Compound | melting point [°C] | also measured
1 | C#CCN1C(=O)C(=O)c2ccccc21 [11a, 1-(Prop-2-yn-1-yl)indoline-2,3-dione] | 158 to 160 | –
2 | O=C(CN1C(=O)C(=O)c2ccccc21)Nc1ccccc1 [11b, 2–(2,3-Dioxoindolin-1-yl)-N-phenylacetamide] | 174 to 176 | –
3 | O=C(CN1C(=O)C(=O)c2ccccc21)Nc1ccc(F)cc1 [11c, 2–(2,3-Dioxoindolin-1-yl)-N-(4-fluorophenyl)acetamide] | – | inhibition percentage [1]: 71%
4 | O=C(CN1C(=O)C(=O)c2ccccc21)Nc1ccc(Cl)cc1 [11d, N-(4-Chlorophenyl)-2–(2,3-dioxoindolin-1-yl)acetamide] | 177 to 179 | –
5 | O=C(CN1C(=O)C(=O)c2ccccc21)Nc1ccc(Br)cc1 [11e, N-(4-Bromophenyl)-2–(2,3-dioxoindolin-1-yl)acetamide] | 179 to 181 | –
6 | O=C(CN1C(=O)C(=O)c2ccccc21)Nc1ccccc1[N+](=O)[O-] [11f, 2–(2,3-Dioxoindolin-1-yl)-N-(2-nitrophenyl)acetamide] | 186 to 188 | inhibition percentage [1]: 5%
7 | O=C(CN1C(=O)C(=O)c2ccccc21)Nc1cccc([N+](=O)[O-])c1 [11g, 2–(2,3-Dioxoindolin-1-yl)-N-(3-nitrophenyl)acetamide] | 191 to 192 | –
8 | O=C(CN1C(=O)C(=O)c2ccccc21)Nc1ccc([N+](=O)[O-])cc1 [11h, 2–(2,3-Dioxoindolin-1-yl)-N-(4-nitrophenyl)acetamide] | 179 to 181 | –
9 | O=C(CN1C(=O)C(=O)c2ccccc21)Nc1ccc(OC(F)(F)F)cc1 [11i, 2–(2,3-Dioxoindolin-1-yl)-N-(4-(trifluoromethoxy)phenyl)acetamide] | 209 to 211 | –
10 | Cc1ccc(NC(=O)CN2C(=O)C(=O)c3ccccc32)cc1 [11j, 2–(2,3-Dioxoindolin-1-yl)-N-(p-tolyl)acetamide] | 196 to 198 | –
11 | COc1ccc(NC(=O)CN2C(=O)C(=O)c3ccccc32)cc1 [11k, 2–(2,3-Dioxoindolin-1-yl)-N-(4-methoxyphenyl)acetamide] | 201 to 203 | –
12 | Ac-DEVD-CHO [reference compound] | – | IC50 ([1]; caspase-3 and −7, Mean ± SD of three experiments, read-out: IC50 (positive control / studied compounds)): 16 ± 2 nM

The next lines start with results.

Row | melting point [°C] | Compound | also measured
13 | 203 to 205 | C#CCN1C(=O)C(=O)c2cc(S(=O)(=O)N3CCCC3)ccc21 [19a, 1-(Prop-2-yn-1-yl)-5-(pyrrolidin-1-ylsulfonyl)indoline-2,3-dione] | Selectivity Index (SI) [1]: greater than 1.5
14 | 191 to 193 | O=C(CN1C(=O)C(=O)c2cc(S(=O)(=O)N3CCCC3)ccc21)Nc1ccc(F)cc1 [19c, 2–(2,3-Dioxo-5-(pyrrolidin-1-ylsulfonyl)indolin-1-yl)-N-(4-fluorophenyl)acetamide] | –
15 | 195 to 197 | O=C(CN1C(=O)C(=O)c2cc(S(=O)(=O)N3CCCC3)ccc21)Nc1ccccc1[N+](=O)[O-] [19f, 2–(2,3-Dioxo-5-(pyrrolidin-1-ylsulfonyl)indolin-1-yl)-N-(2-nitrophenyl)acetamide] | –
16 | 266 to 267 | O=C(CN1C(=O)C(=O)c2cc(S(=O)(=O)N3CCCC3)ccc21)Nc1ccc(OC(F)(F)F)cc1 [19i, 2–(2,3-Dioxo-5-(pyrrolidin-1-ylsulfonyl)indolin-1-yl)-N-(4-(trifluoromethoxy)phenyl)acetamide] | –
17 | 282 to 284 | C#CCN1C(=O)C(=O)c2cc(S(=O)(=O)N3CCC[C@H]3COc3ccccc3)ccc21 [20a, (S)-5-((2-(Phenoxymethyl)pyrrolidin-1-yl)sulphonyl)-1-(prop-2-yn-1-yl)indoline-2,3-dione] | –
18 | 238 to 240 | O=C(CN1C(=O)C(=O)c2cc(S(=O)(=O)N3CCC[C@H]3COc3ccccc3)ccc21)Nc1ccccc1 [20b, (S)-2–(2,3-Dioxo-5-((2-(phenoxymethyl)pyrrolidin-1-yl)sulphonyl)indolin-1-yl)-N-phenylacetamide] | –
19 | 108 to 110 | O=C(CN1C(=O)C(=O)c2cc(S(=O)(=O)N3CCC[C@H]3COc3ccccc3)ccc21)Nc1ccc(F)cc1 [20c, (S)-2–(2,3-Dioxo-5-((2-(phenoxymethyl)pyrrolidin-1-yl)sulphonyl)indolin-1-yl)-N-(4-fluorophenyl)acetamide] | Selectivity Index (SI) [1]: greater than 1.5
20 | 209 to 211 | O=C(CN1C(=O)C(=O)c2cc(S(=O)(=O)N3CCC[C@H]3COc3ccccc3)ccc21)Nc1ccc(Cl)cc1 [20d, (S)-N-(4-chlorophenyl)-2–(2,3-dioxo-5-((2-(phenoxymethyl)pyrrolidin-1-yl)sulphonyl)indolin-1-yl)acetamide] | IC50 [2]: 2330 nM; Selectivity Index (SI) [1]: greater than 1.5; inhibitory activity against caspase-3 and −7 (in words) [1]: most active compound; also recorded: moderate inhibitory activity
21 | 196 to 198 | O=C(CN1C(=O)C(=O)c2cc(S(=O)(=O)N3CCC[C@H]3COc3ccccc3)ccc21)Nc1ccc(Br)cc1 [20e, (S)-N-(4-Bromophenyl)-2–(2,3-dioxo-5-((2-(phenoxymethyl)pyrrolidin-1-yl)sulphonyl)indolin-1-yl)acetamide] | Selectivity Index (SI) [1]: greater than 1.5
22 | 180 to 182 | O=C(CN1C(=O)C(=O)c2cc(S(=O)(=O)N3CCC[C@H]3COc3ccccc3)ccc21)Nc1ccccc1[N+](=O)[O-] [20f, (S)-2–(2,3-Dioxo-5-((2-(phenoxymethyl)pyrrolidin-1-yl)sulphonyl)indolin-1-yl)-N-(2-nitrophenyl)acetamide] | inhibitory activity against caspase-3 and −7 (in words) [1]: moderated caspase-3 and −7 inhibitors
23 | 181 to 183 | O=C(CN1C(=O)C(=O)c2cc(S(=O)(=O)N3CCC[C@H]3COc3ccccc3)ccc21)Nc1cccc([N+](=O)[O-])c1 [20g, (S)-2–(2,3-Dioxo-5-((2-(phenoxymethyl)pyrrolidin-1-yl)sulphonyl)indolin-1-yl)-N-(3-nitrophenyl)acetamide] | –
24 | 162 to 164 | O=C(CN1C(=O)C(=O)c2cc(S(=O)(=O)N3CCC[C@H]3COc3ccccc3)ccc21)Nc1ccc([N+](=O)[O-])cc1 [20h, (S)-2–(2,3-Dioxo-5-((2-(phenoxymethyl)pyrrolidin-1-yl)sulphonyl)indolin-1-yl)-N-(4-nitrophenyl)acetamide] | –
25 | 218 to 220 | O=C(CN1C(=O)C(=O)c2cc(S(=O)(=O)N3CCC[C@H]3COc3ccccc3)ccc21)Nc1ccc(OC(F)(F)F)cc1 [20i, (S)-2–(2,3-Dioxo-5-((2-(phenoxymethyl)pyrrolidin-1-yl)sulphonyl)indolin-1-yl)-N-(4-(trifluoromethoxy)phenyl)acetamide] | –
26 | 209 to 211 | Cc1ccc(NC(=O)CN2C(=O)C(=O)c3cc(S(=O)(=O)N4CCC[C@H]4COc4ccccc4)ccc32)cc1 [20j, (S)-2–(2,3-Dioxo-5-((2-(phenoxymethyl)pyrrolidin-1-yl)sulphonyl)indolin-1-yl)-N-(p-tolyl)acetamide] | inhibitory activity against caspase-3 and −7 (in words) [1]: lowest enzymatic inhibition
27 | 204 to 206 | COc1ccc(NC(=O)CN2C(=O)C(=O)c3cc(S(=O)(=O)N4CCC[C@H]4COc4ccccc4)ccc32)cc1 [20k, (S)-2–(2,3-Dioxo-5-((2-(phenoxymethyl)pyrrolidin-1-yl)sulphonyl)indolin-1-yl)-N-(4-methoxyphenyl)acetamide] | inhibitory activity against caspase-3 and −7 (in words) [1]: lowest enzymatic inhibition
